pIC50: −log10 of the molar value.
What was measured:
Plasmodium falciparum [1] = assay: Antimalarial activity against Plasmodium falciparum 3D7 after 72 hrs by SYBR Green fluorescence assay; assay type: functional, organism-based; details: 3D7, 72 h
Plasmodium falciparum [2] = assay: Antimalarial activity against Plasmodium falciparum K1 after 72 hrs by SYBR Green fluorescence assay; assay type: functional, organism-based; details: K1, 72 h
[3] = Cytotoxicity against african green monkey Vero cells after 2 days by resazurin assay; assay type: cell-based; details: chlorocebus sabaeus
Heme = assay: Inhibition of heme polymerization in Plasmodium yoelii nigeriensis infected erythrocytes (unknown origin) extract at 100 uM after 4 hrs by spectrophotometry
[4] = Terminal elimination half-life in Sprague-Dawley rat at 5 mg/kg, iv; assay type: ADME, organism-based; set-up: dose 5 mg/kg, route intravenous; details: in vivo, read-out: beta t1/2 (converted)
[5] = Volume of distribution in Sprague-Dawley rat at 5 mg/kg, iv; assay type: ADME, organism-based; set-up: dose 5 mg/kg, route intravenous; details: in vivo
[6] = Systemic clearance in Sprague-Dawley rat at 5 mg/kg, iv; assay type: ADME, organism-based; set-up: dose 5 mg/kg, route intravenous; details: in vivo

pIC50 (Plasmodium falciparum [1]) | pIC50 (Plasmodium falciparum [2]) | inhibition (Heme) [%] | half-life [4] [h] | Vd [5] [L/kg] | clearance [6] [mL/min/kg] | SMILES | CC50 at 48 h [3] [µM]
< 4.70 | < 4.70 |  |  |  |  | Cc1ccc(S(=O)(=O)Nc2ccccc2)cc1 | 221
5.41 | 5.29 |  |  |  |  | Cc1ccc(S(=O)(=O)Nc2cccc(/C=C/C(=O)C[C@@H]3O[C@H](CO)[C@@H](O)[C@H](O)[C@@H]3O)c2)cc1 | 417
5.28 | 5.26 |  |  |  |  | CC(=O)OC[C@H]1O[C@@H](CC(=O)/C=C/c2ccc(NC(=O)Nc3ccccc3)cc2)[C@H](OC(C)=O)[C@@H](OC(C)=O)[C@@H]1OC(C)=O | 820
5.72 | 5.35 |  |  |  |  | CC(=O)OC[C@H]1O[C@@H](CC(=O)/C=C/c2cccc(NC(=S)Nc3ccccc3)c2)[C@H](OC(C)=O)[C@@H](OC(C)=O)[C@@H]1OC(C)=O | 337
4.93 | 4.86 |  |  |  |  | O=C(/C=C/c1ccc(NC(=S)Nc2ccccc2)cc1)C[C@@H]1O[C@H](CO)[C@@H](O)[C@H](O)[C@H]1O | 274
5.18 | 5.11 |  |  |  |  | CC(=O)OC[C@H]1O[C@@H](CC(=O)/C=C/c2cccc(NC(=O)Nc3ccccc3)c2)[C@@H](OC(C)=O)[C@@H](OC(C)=O)[C@@H]1OC(C)=O | 102
5.46 | 5.27 |  |  |  |  | O=C(/C=C/c1cccc(NC(=O)Nc2ccccc2)c1)C[C@@H]1OC[C@@H](O)[C@H](O)[C@H]1O | 309
4.88 | 4.75 |  |  |  |  | O=C(/C=C/c1cccc(NC(=S)Nc2ccccc2)c1)C[C@@H]1O[C@H](CO)[C@@H](O)[C@H](O)[C@@H]1O | 336
4.79 | 4.79 |  |  |  |  | CCOC(=O)/C=C/c1cccc(NS(=O)(=O)c2ccc(C)cc2)c1 | 77.1
6.03 | 5.37 | 92.7 |  |  |  | COc1ccc(NC(=O)Nc2cccc(/C=C/C(=O)C[C@@H]3O[C@H](COC(C)=O)[C@@H](OC(C)=O)[C@H](OC(C)=O)[C@H]3OC(C)=O)c2)c([N+](=O)[O-])c1 | 730
< 4.70 | < 4.70 |  |  |  |  | CCOC(=O)/C=C/c1cccc(NC(=S)Nc2ccccc2)c1 | 279
5.47 | 5.61 |  |  |  |  | COc1cc([N+](=O)[O-])ccc1NC(=S)Nc1cccc(/C=C/C(=O)C[C@@H]2O[C@H](CO)[C@@H](O)[C@H](O)[C@H]2O)c1 | 203
5.38 | 5.25 |  |  |  |  | CC(=O)O[C@@H]1[C@@H](OC(C)=O)[C@H](OC(C)=O)CO[C@H]1CC(=O)/C=C/c1cccc(NC(=S)Nc2ccccc2)c1 | 58.7
5.16 | 5.06 |  |  |  |  | O=C(/C=C/c1cccc(NC(=S)Nc2ccccc2)c1)C[C@@H]1OC[C@@H](O)[C@H](O)[C@H]1O | 289
5.50 | 5.31 | 76.9 |  |  |  | CC(=O)O[C@@H]1[C@@H](OC(C)=O)[C@H](OC(C)=O)CO[C@H]1CC(=O)/C=C/c1cccc(NC(=O)Nc2ccccc2)c1 | 102
 |  |  |  |  |  | CCN(CC)CCCC(C)Nc1ccnc2cc(Cl)ccc12 (centres undefined) [CHLOROQUINE] | 685
5.23 | 5.28 |  |  |  |  | O=C(/C=C/c1ccc(NC(=O)Nc2ccc3ccccc3c2)cc1)C[C@@H]1O[C@H](CO)[C@@H](O)[C@H](O)[C@H]1O | 1020
4.86 | < 4.70 |  |  |  |  | O=C(Nc1ccccc1)Nc1ccccc1 | 352

pIC50 (Plasmodium falciparum [1]) | pIC50 (Plasmodium falciparum [2]) | inhibition (Heme) [%] | half-life [4] [h] | Vd [5] [L/kg] | clearance [6] [mL/min/kg] | SMILES | CC50 at 48 h [3] [µM]
5.43 | 5.54 |  |  |  |  | CC(=O)OC[C@H]1O[C@@H](CC(=O)/C=C/c2cccc(NC(=S)Nc3ccccc3)c2)[C@@H](OC(C)=O)[C@@H](OC(C)=O)[C@@H]1OC(C)=O | 65.1
6.26 | 6.38 | 72.1 |  |  |  | COc1cc([N+](=O)[O-])ccc1NC(=S)Nc1cccc(/C=C/C(=O)C[C@@H]2O[C@H](COC(C)=O)[C@@H](OC(C)=O)[C@H](OC(C)=O)[C@H]2OC(C)=O)c1 | 559
5.66 | 5.27 |  |  |  |  | CC(=O)OC[C@H]1O[C@@H](CC(=O)/C=C/c2ccc(NC(=O)Nc3ccc4ccccc4c3)cc2)[C@H](OC(C)=O)[C@@H](OC(C)=O)[C@@H]1OC(C)=O | 482
4.70 | 4.70 |  |  |  |  | O=C(/C=C/c1cccc(NC(=O)Nc2ccccc2)c1)C[C@@H]1O[C@H](CO)[C@@H](O)[C@H](O)[C@@H]1O | 
5.40 | 5.28 |  |  |  |  | CC(=O)OC[C@H]1O[C@@H](CC(=O)/C=C/c2cccc(NS(=O)(=O)c3ccc(C)cc3)c2)[C@@H](OC(C)=O)[C@@H](OC(C)=O)[C@@H]1OC(C)=O | 123
5.66 | 5.41 |  |  |  |  | Cc1ccc(S(=O)(=O)Nc2cccc(/C=C/C(=O)C[C@@H]3O[C@H](CO)[C@@H](O)[C@H](O)[C@H]3O)c2)cc1 | 381
5.64 | 5.62 | 72.5 |  |  |  | CC(=O)OC[C@H]1O[C@@H](CC(=O)/C=C/c2cccc(NC(=O)Nc3ccccc3)c2)[C@H](OC(C)=O)[C@@H](OC(C)=O)[C@@H]1OC(C)=O | 180
5.12 | 5.12 |  |  |  |  | O=C(/C=C/c1ccc(NC(=O)Nc2ccccc2)cc1)C[C@@H]1O[C@H](CO)[C@@H](O)[C@H](O)[C@H]1O | 1130
< 4.70 | 4.74 |  |  |  |  | COc1ccc(NC(=O)Nc2ccccc2)c([N+](=O)[O-])c1 | 356
5.86 | 5.52 |  |  |  |  | CC(=O)O[C@@H]1[C@@H](OC(C)=O)[C@H](OC(C)=O)CO[C@H]1CC(=O)/C=C/c1cccc(NS(=O)(=O)c2ccc(C)cc2)c1 | 268
5.03 | 5.14 |  |  |  |  | O=C(/C=C/c1cccc(NC(=S)Nc2ccccc2)c1)C[C@@H]1O[C@H](CO)[C@@H](O)[C@H](O)[C@H]1O | 371
6.25 | 5.80 |  | 7.1 | 2.8 | 17 | COc1ccc(NC(=O)Nc2cccc(/C=C/C(=O)C[C@@H]3O[C@H](CO)[C@@H](O)[C@H](O)[C@H]3O)c2)c([N+](=O)[O-])c1 | 709
5.53 | 5.20 |  |  |  |  | Cc1ccc(S(=O)(=O)Nc2cccc(/C=C/C(=O)C[C@@H]3OC[C@@H](O)[C@H](O)[C@H]3O)c2)cc1 | 94.7
5.94 | 5.66 |  |  |  |  | CC(=O)OC[C@H]1O[C@@H](CC(=O)/C=C/c2cccc(NS(=O)(=O)c3ccc(C)cc3)c2)[C@H](OC(C)=O)[C@@H](OC(C)=O)[C@@H]1OC(C)=O | 584
5.42 | 5.47 |  |  |  |  | O=C(/C=C/c1cccc(NC(=O)Nc2ccccc2)c1)C[C@@H]1O[C@H](CO)[C@@H](O)[C@H](O)[C@H]1O | 373
5.06 | 4.87 |  |  |  |  | CCOC(=O)/C=C/c1cccc(NC(=O)Nc2ccccc2)c1 | 293
5.74 | 5.64 |  |  |  |  | CC(=O)OC[C@H]1O[C@@H](CC(=O)/C=C/c2ccc(NC(=S)Nc3ccccc3)cc2)[C@H](OC(C)=O)[C@@H](OC(C)=O)[C@@H]1OC(C)=O | 663

Reference: ChEMBL document CHEMBL3351535, “Identification of novel phenyl butenonyl C-glycosides with ureidyl and sulfonamidyl moieties as antimalarial agents” (ACS Med Chem Lett, 2014)
